# Assay results as given in ChEMBL document CHEMBL3822357, “New Atglistatin closely related analogues: Synthesis and structure-activity relationship towards adipose triglyceride lipase inhibition” (Eur J Med Chem, 2016).
# The source made the active and inactive calls. The rule behind the calls is not given here.
# Key:
# [1] = molecular target: T1, Patatin-like phospholipase domain-containing protein 2 (Mus musculus) (UniProt Q8BJ56); assay: Inhibition of ATGL in mouse 3T3L1 cells assessed as inhibition of isoproterenol-stimulated lipolysis by measuring reduction in non-esterified fatty acid release in media at 20 uM preincubated for 4 hrs followed by isoproterenol addition measured after 1 hr by colorimetric assay; assay type: cell-based; conditions: 3T3-L1
# T1 sequence (whole entry): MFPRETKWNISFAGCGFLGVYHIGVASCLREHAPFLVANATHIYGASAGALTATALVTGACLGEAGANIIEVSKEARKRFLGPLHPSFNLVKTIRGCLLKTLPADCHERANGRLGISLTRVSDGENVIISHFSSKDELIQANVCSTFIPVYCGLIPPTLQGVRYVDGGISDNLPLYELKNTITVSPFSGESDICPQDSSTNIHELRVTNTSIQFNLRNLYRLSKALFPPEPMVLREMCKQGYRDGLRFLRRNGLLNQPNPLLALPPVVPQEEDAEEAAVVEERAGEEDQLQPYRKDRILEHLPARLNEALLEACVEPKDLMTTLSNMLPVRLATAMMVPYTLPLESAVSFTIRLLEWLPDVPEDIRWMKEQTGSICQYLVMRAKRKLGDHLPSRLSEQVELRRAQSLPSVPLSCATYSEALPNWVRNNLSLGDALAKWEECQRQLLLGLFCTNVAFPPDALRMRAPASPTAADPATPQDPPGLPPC
# [2] = molecular target: T1, Patatin-like phospholipase domain-containing protein 2 (Mus musculus); assay: Inhibition of ATGL in mouse 3T3L1 cells assessed as inhibition of isoproterenol-stimulated lipolysis by measuring reduction in glycerol release in media at 20 uM preincubated for 4 hrs followed by isoproterenol addition measured after 1 hr by colorimetric assay; assay type: cell-based; conditions: 3T3-L1
# [3] = molecular target: T2, Patatin-like phospholipase domain-containing protein 2 (Homo sapiens, UniProt Q96AD5); assay: Inhibition of ATGL (unknown origin) overexpressed in Escherichia coli XL-1 cells using [9,10-3H(N)]triolein as substrate incubated for 60 mins by liquid scintillation counting method
# T2 sequence (Q96AD5 whole entry): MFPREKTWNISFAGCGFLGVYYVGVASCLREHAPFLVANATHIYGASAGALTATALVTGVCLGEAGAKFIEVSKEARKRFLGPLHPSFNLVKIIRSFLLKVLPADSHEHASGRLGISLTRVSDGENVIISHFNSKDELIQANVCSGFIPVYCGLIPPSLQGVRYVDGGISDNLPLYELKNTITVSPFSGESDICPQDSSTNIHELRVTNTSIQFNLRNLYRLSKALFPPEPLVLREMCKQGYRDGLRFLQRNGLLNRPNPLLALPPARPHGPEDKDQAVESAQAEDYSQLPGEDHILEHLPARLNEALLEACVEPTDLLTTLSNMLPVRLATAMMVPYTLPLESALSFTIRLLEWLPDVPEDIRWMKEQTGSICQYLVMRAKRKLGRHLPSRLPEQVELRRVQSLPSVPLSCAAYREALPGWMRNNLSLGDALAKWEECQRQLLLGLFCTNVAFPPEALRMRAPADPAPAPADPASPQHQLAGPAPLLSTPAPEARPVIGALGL
inhibition [1],inhibition [2],IC50 [3] [µM],SMILES
inactive,inactive,,CN(C)C(=O)Nc1cccc(-c2cccc(N(C)C)c2)c1
inactive,inactive,,CN(C)C(=O)Nc1cccc(-c2cccc(NC(=O)N(C)C)c2)c1
inactive,inactive,,CN(C)c1cccc(N(C)C)c1
inactive,inactive,,CN(C)c1ccc(-c2ccccc2)cc1
inactive,inactive,,CN(C)C(=O)Nc1ccc(-c2cccc(N(C)C)c2)cc1
inactive,inactive,,CN(C)C(=O)Nc1ccc(-c2ccc(NC(=O)N(C)C)cc2)cc1
Active,,0.7,CN(C)C(=O)Nc1cccc(-c2ccc(N(C)C)cc2)c1
inactive,inactive,,CN(C)C(=O)Nc1cccc(N(C)C)c1
,inactive,,CN(C)C(=O)Nc1ccc(N(C)C)cc1
,inactive,,CN(C)C(=O)Nc1ccc(-c2ccccc2)cc1
inactive,inactive,,CN(C)C(=O)Nc1ccc(NC(=O)N(C)C)cc1
Active,Active,,CN(C)C(=O)Nc1cccc(-c2ccccc2)c1
inactive,inactive,,CN(C)C(=O)Nc1ccc(-c2ccc(N(C)C)cc2)cc1
,inactive,,CN(C)C(=O)Nc1ccc(-c2ccc(N)cc2)cc1
inactive,inactive,,CN(C)c1cccc(-c2ccccc2)c1
inactive,inactive,,CN(C)c1cccc(-c2cccc(N(C)C)c2)c1

SMILES,inhibition [1],inhibition [2],IC50 [3] [µM]
CN(C)c1ccc(N(C)C)cc1,inactive,inactive,
CN(C)c1ccc(-c2ccc(N(C)C)cc2)cc1,inactive,inactive,
